Like-named read-outs stand apart in the source and are kept apart here.
Legend:
[1] = Plasma stability (Table 2B)
EM9 cells (XRCC1) = assay: Antiproliferation assay - DNA mutant repair cells; conditions: Cricetulus griseus, 2 h
H460 cell line = assay: Anti-proliferation assay, hypoxia vs normoxia (Table 1A); conditions: for IC50: Homo sapiens; for HCR P: ratio of IC50 in normoxia and hypoxia
NCI-H460 cells [2] = assay: Antiproliferation assay (Alamar Blue), anoxia vs air; conditions: Homo sapiens, NCI-H460, 2 h
IRS1SF cells (XRCC3) = assay: Antiproliferation assay - DNA mutant repair cells; conditions: Cricetulus griseus, 2 h
HT29 cells [3] = assay: Antiproliferation assay (Alamar Blue), anoxia vs air; conditions: Homo sapiens, HT-29, 2 h
[4] = test system: H460 cells exposed as monolayers; assay: Clonogenic survival of monolayer cells (Example 35); conditions: Homo sapiens, NCI-H460, 2 h
NCI-H460 cells [5] = assay: Antiproliferation assay - oxygen dependence; assay type: cell-based, human; conditions: Homo sapiens
Excerpt: . […] The calculated IC50 values (μM) are tabulated in Table Y1 (H460 cells) or Table Y2 (HT29 cells) below.

[6] = test system: H460 lung carcinoma spheroids; assay: Spheroid model, clonogenic survival; conditions: Homo sapiens, NCI-H460, 2 h, read-out: IC90 H460 Spheroid 10% O2
UV135 cells (XPG) = assay: Antiproliferation assay - DNA mutant repair cells; conditions: Cricetulus griseus, 2 h
[7] = assay type: physicochemical; conditions: glassy carbon, Ag/AgCl reference; for Reduction Potentials, 100 mV/sec: scan rate 100 mV/sec; for Reduction Potentials, 10,000 mV/sec: scan rate 10,000 mV/sec
AA8 cells (wild type) = assay: Antiproliferation assay - DNA mutant repair cells; conditions: Cricetulus griseus, CHO-AA8, 2 h
MES-SA cells = assay: Antiproliferation assay (Alamar Blue), anoxia vs air; conditions: Homo sapiens, 2 h
UV41 cells (XPF) = assay: Antiproliferation assay - DNA mutant repair cells; conditions: Cricetulus griseus, 2 h
HCT116 = assay: Anti-proliferation assay, hypoxia vs normoxia (Table 1B); conditions: for IC50: Homo sapiens
DX-5 = assay: as above
in vivo = conditions: for half-life: t ½, mice
HT29 = assay: Anti-proliferation assay, hypoxia vs normoxia (Table 1B); conditions: for IC50: Homo sapiens
MES-SA/Dx5 cells = assay: Antiproliferation assay (Alamar Blue), anoxia vs air; conditions: Homo sapiens, MES-SA/Dx5, 2 h
HT29 cells [8] = assay: Cell cycle distribution (flow cytometry); assay type: cell-based, human
Description: Cells ([…], PC3 and HT29) were seeded at a density of 1.0×10^6 cells/3 ml medium per 60 mm dish. After 24 h attachment, cells were exposed to Compound 25 at the indicated concentrations for 2 h under either normoxia (air) or anoxia (nitrogen). Cells were washed twice, and incubated for an additional 22 h in fresh medium. Cells were trypsinized, centrifuged, and fixed in 75% ethanol at least for 24 h at −20° C. Cell cycle distribution was determined using Guava Cell Cycle reagent (Guava, Hayward, Calif.) by flow cytometry (Guava, Hayward, Calif.).

[9] = NCI-H460, read-out: Hypoxia P (proliferation IC50)
[10] = NCI-H460, read-out: Normoxia P (proliferation IC50)
[11] = read-out: IC50 H460 Air, air, 2 h exposure
[12] = read-out: IC50 H460 Anoxia, anoxia, 2 h exposure
[13] = read-out: IC90 H460 Monolayer Air
[14] = read-out: IC90 H460 Monolayer N2
[15] = NCI-H460, read-out: IC50 in H460 cells, 0.1% O2
[16] = NCI-H460, read-out: IC50 in H460 cells, 0.6% O2
[17] = NCI-H460, read-out: IC50 in H460 cells, 1% O2
[18] = NCI-H460, read-out: IC50 in H460 cells, 10% O2
[19] = NCI-H460, read-out: IC50 in H460 cells, Air
[20] = NCI-H460, read-out: IC50 in H460 cells, N2
[21] = HCT-116, read-out: HCT116 P H (proliferation IC50, hypoxia)
[22] = HCT-116, read-out: HCT116 P N (proliferation IC50, normoxic)
[23] = read-out: DX-5 P H (proliferation IC50, hypoxia)
[24] = read-out: DX-5 P N (proliferation IC50, normoxic)
[25] = CD-1, Balb/c for Compound 1, mouse, ip
[26] = CD-1, Balb/c for Compound 1, mouse, iv
[27] = CD-1, Balb/c for Compound 1, mouse, iv, intravenous administration in mice
[28] = mouse, ip, intraperitoneal administration in mice
[29] = HT-29, read-out: HT29 P H (proliferation IC50, hypoxia)
[30] = HT-29, read-out: HT29 P N (proliferation IC50, normoxic)
[31] = read-out: IC50 MES-SA/Dx5 Anoxia

Cn1c(COP(=O)(NCCCl)NCCCl)cnc1[N+](=O)[O-] [Compound 36]
Plasma stability (% at 30 min) ([1]; 30 min): 60% | IC50 (EM9 cells (XRCC1); read-out: IC50 EM9 Air): > 100 µM | IC50 (EM9 cells (XRCC1); read-out: IC50 EM9 Anoxia): 4 µM | IC50 (H460 cell line; [9]): 0.88 µM | IC50 (H460 cell line; [10]): > 100 µM | HCR P (H460 cell line): >110 | IC50 (NCI-H460 cells [2]; [11]): > 100 µM | IC50 (NCI-H460 cells [2]; [12]): 0.88 µM | IC50 (IRS1SF cells (XRCC3); read-out: IC50 IRS1SF Air): 59 µM | IC50 (IRS1SF cells (XRCC3); read-out: IC50 IRS1SF Anoxia): 0.3 µM | IC50 (HT29 cells [3]; read-out: IC50 HT29 Air): > 100 µM | IC50 (HT29 cells [3]; read-out: IC50 HT29 Anoxia): 55 µM | IC90 [4, 13]: 100 µM | IC90 [4, 14]: 1 µM | IC50 (NCI-H460 cells [5]; [15]): 30 µM | IC50 (NCI-H460 cells [5]; [16]): 60 µM | IC50 (NCI-H460 cells [5]; [17]): 60 µM | IC50 (NCI-H460 cells [5]; [18]): > 100 µM | IC50 (NCI-H460 cells [5]; [19]): > 100 µM | IC50 (NCI-H460 cells [5]; [20]): 1 µM | IC90 [6]: > 100 µM | IC50 (UV135 cells (XPG); read-out: IC50 UV135 Air): > 100 µM | IC50 (UV135 cells (XPG); read-out: IC50 UV135 Anoxia): 2 µM | Reduction Potentials, 100 mV/sec [7]: −609 mV | Reduction Potentials, 10,000 mV/sec [7]: −634 mV | IC50 (AA8 cells (wild type); read-out: IC50 AA8 Air): > 100 µM | IC50 (AA8 cells (wild type); read-out: IC50 AA8 Anoxia): 2 µM | IC50 (MES-SA cells; read-out: IC50 MES-SA Air): > 100 µM | IC50 (MES-SA cells; read-out: IC50 MES-SA Anoxia): 5 µM | IC50 (UV41 cells (XPF); read-out: IC50 UV41 Air): 20 µM | IC50 (UV41 cells (XPF); read-out: IC50 UV41 Anoxia): 0.03 µM | HCT116 HCR (HCT116): >20 | IC50 (HCT116; [21]): 5 µM | IC50 (HCT116; [22]): > 100 µM | DX-5 HCR (DX-5): >13 | IC50 (DX-5; [23]): 7.5 µM | IC50 (DX-5; [24]): > 100 µM | clearance (in vivo; CD-1 (Compounds 5, 23, 36), Balb/c (Compound 1), mouse, iv): 77.4 mL/min/kg | Cmax (in vivo; [25]): 44000 ng/mL | AUC (in vivo; [26]): 10800 ng·h/mL | Cmax (in vivo; [26]): 27700 ng/mL | Vd (in vivo; [26]): 1.27 L/kg | half-life (in vivo; [27]): 14.4 min | AUC (in vivo; CD-1, mouse, ip): 26100 ng·h/mL | half-life (in vivo; [28]): 10.8 min | HT29 HCR P (HT29): >2 | IC50 (HT29; [29]): 55 µM | IC50 (HT29; HT-29, read-out: HT29 P H, value in parentheses): 35 µM | IC50 (HT29; [30]): > 100 µM | IC50 (MES-SA/Dx5 cells; read-out: IC50 MES-SA/Dx5 Air): > 100 µM | IC50 (MES-SA/Dx5 cells; [31]): 7.5 µM

Cn1c(COP(=O)(NCCBr)NCCBr)cnc1[N+](=O)[O-] [Compound 25]
Plasma stability (at 20 min) ([1]; at 20 min): 102% | IC50 (EM9 cells (XRCC1); read-out: IC50 EM9 Air): > 100 µM | IC50 (EM9 cells (XRCC1); read-out: IC50 EM9 Anoxia): 7 µM | IC50 (H460 cell line; [9]): 0.05 µM | IC50 (H460 cell line; NCI-H460, read-out: IC50 in cells under hypoxia): 0.05 µM | IC50 (H460 cell line; [10]): 50 µM | fold more toxic in hypoxic cells than in normoxic cells (H460 cell line; anti-proliferation cytotoxicity assay): 1000 fold | HCR P (H460 cell line): 1000 | IC50 (NCI-H460 cells [2]; [11]): 86 µM | IC50 (NCI-H460 cells [2]; [12]): 0.15 µM | IC50 (IRS1SF cells (XRCC3); read-out: IC50 IRS1SF Air): > 100 µM | IC50 (IRS1SF cells (XRCC3); read-out: IC50 IRS1SF Anoxia): 2 µM | IC50 (HT29 cells [3]; read-out: IC50 HT29 Air): > 100 µM | IC50 (HT29 cells [3]; read-out: IC50 HT29 Anoxia): 16 µM | IC90 ([4]; read-out: IC90 H460 Monolayer 0.6% O2): 0.6 µM | IC90 [4, 13]: 20 µM | IC90 [4, 14]: 0.1 µM | IC50 (NCI-H460 cells [5]; [15]): 1 µM | IC50 (NCI-H460 cells [5]; NCI-H460, read-out: IC50 in H460 cells, 0.3% O2): 3 µM | IC50 (NCI-H460 cells [5]; [16]): 5 µM | IC50 (NCI-H460 cells [5]; [17]): 10 µM | IC50 (NCI-H460 cells [5]; [18]): 25 µM | IC50 (NCI-H460 cells [5]; [19]): 55 µM | IC50 (NCI-H460 cells [5]; [20]): 0.1 µM | IC90 [6]: 15 µM | IC50 (UV135 cells (XPG); read-out: IC50 UV135 Air): > 100 µM | IC50 (UV135 cells (XPG); read-out: IC50 UV135 Anoxia): 6 µM | Reduction Potentials, 100 mV/sec [7]: −594 mV | Reduction Potentials, 10,000 mV/sec [7]: −626 mV | IC50 (AA8 cells (wild type); read-out: IC50 AA8 Air): > 100 µM | IC50 (AA8 cells (wild type); read-out: IC50 AA8 Anoxia): 8 µM | IC50 (MES-SA cells; read-out: IC50 MES-SA Air): > 100 µM | IC50 (MES-SA cells; read-out: IC50 MES-SA Anoxia): 0.9 µM | IC50 (UV41 cells (XPF); read-out: IC50 UV41 Air): 95 µM | IC50 (UV41 cells (XPF); read-out: IC50 UV41 Anoxia): 0.2 µM | HCT116 HCR (HCT116): >100 | IC50 (HCT116; [21]): 0.9 µM | IC50 (HCT116; [22]): > 100 µM | DX-5 HCR (DX-5): >100 | IC50 (DX-5; [23]): 1 µM | IC50 (DX-5; [24]): > 100 µM | Cmax (in vivo; [25]): 22900 ng/mL | Cmax (in vivo; [26]): 27500 ng/mL | half-life (in vivo; [27]): 6.6 min | half-life (in vivo; mouse, ip, intraperitoneal administration in mice (min)): 11 min | half-life (in vivo; [28]): 10.8 min | half-life (in vivo; mouse, iv, intravenous administration in mice (min)): 6.7 min | HT29 HCR P (HT29): >6 | IC50 (HT29; [29]): 16 µM | IC50 (HT29; [30]): > 100 µM | Cell cycle G0/G1 (HT29 cells [8]; 0.005 μM, Air): 52 | Cell cycle G2/M (HT29 cells [8]; 0.005 μM, Air): 35 | Cell cycle S (HT29 cells [8]; 0.005 μM, Air): 12 | Cell cycle G0/G1 (HT29 cells [8]; 0.005 μM, Nitrogen): 46 | Cell cycle G2/M (HT29 cells [8]; 0.005 μM, Nitrogen): 40 | Cell cycle S (HT29 cells [8]; 0.005 μM, Nitrogen): 14 | Cell cycle G0/G1 (HT29 cells [8]; 0.05 μM, Air): 50 | Cell cycle G2/M (HT29 cells [8]; 0.05 μM, Air): 35 | Cell cycle S (HT29 cells [8]; 0.05 μM, Air): 15 | Cell cycle G0/G1 (HT29 cells [8]; 0.05 μM, Nitrogen): 37 | Cell cycle G2/M (HT29 cells [8]; 0.05 μM, Nitrogen): 52 | Cell cycle S (HT29 cells [8]; 0.05 μM, Nitrogen): 11 | Cell cycle G0/G1 (HT29 cells [8]; 0.5 μM, Air): 48 | Cell cycle G2/M (HT29 cells [8]; 0.5 μM, Air): 37 | Cell cycle S (HT29 cells [8]; 0.5 μM, Air): 14 | Cell cycle G0/G1 (HT29 cells [8]; 0.5 μM, Nitrogen): 8 | Cell cycle G2/M (HT29 cells [8]; 0.5 μM, Nitrogen): 84 | Cell cycle S (HT29 cells [8]; 0.5 μM, Nitrogen): 8 | Cell cycle G0/G1 (HT29 cells [8]; 5 μM, Air): 47 | Cell cycle G2/M (HT29 cells [8]; 5 μM, Air): 39 | Cell cycle S (HT29 cells [8]; 5 μM, Air): 13 | Cell cycle G0/G1 (HT29 cells [8]; 5 μM, Nitrogen): 14 | Cell cycle G2/M (HT29 cells [8]; 5 μM, Nitrogen): 36 | Cell cycle S (HT29 cells [8]; 5 μM, Nitrogen): 50 | IC50 (MES-SA/Dx5 cells; read-out: IC50 MES-SA/Dx5 Air): > 100 µM | IC50 (MES-SA/Dx5 cells; [31]): 0.3 µM

From patent US8507464B2, “Phosphoramidate alkylator prodrugs” (Threshold Pharmaceuticals, Inc., priority 2005, dated 2013)
